Values of other authors as cited in patent publication US11607129B2, “Combined positron emission tomography (PET)-electron paramagnetic resonance (EPR) imaging device” (West Virginia University, priority 2018, dated 2023).

Test system: mouse
Details: as confirmed by recent cytotoxicity studies; probe hydrophilic, remains extracellular

Substance: phosphonated triarylmethyl radicals [pTAM]
- toxicity to the mouse: minimal toxicity
